Consider 15 molecules from ChEMBL document CHEMBL4118091, “N-Acylbenzenesulfonamide Dihydro-1,3,4-oxadiazole Hybrids: Seeking Selectivity toward Carbonic Anhydrase Isoforms” (ACS Med Chem Lett, 2017).

The target in assay [1] is Carbonic anhydrase 9 (Homo sapiens, UniProt Q16790). In words: Inhibition of recombinant human carbonic anhydrase 9 assessed as reduction in CO2 hydration pretreated for 15 mins followed by CO2 addition measured for 10 to 100 sec by Line-Weaver Burk plot analysis.
Assay [2] has as its target Carbonic anhydrase 1 (Homo sapiens, UniProt P00915). In words: Inhibition of recombinant human carbonic anhydrase 1 assessed as reduction in CO2 hydration pretreated for 15 mins followed by CO2 addition measured for 10 to 100 sec by Line-Weaver Burk plot analysis.

Carbonic anhydrase 1, sequence (P00915 whole entry): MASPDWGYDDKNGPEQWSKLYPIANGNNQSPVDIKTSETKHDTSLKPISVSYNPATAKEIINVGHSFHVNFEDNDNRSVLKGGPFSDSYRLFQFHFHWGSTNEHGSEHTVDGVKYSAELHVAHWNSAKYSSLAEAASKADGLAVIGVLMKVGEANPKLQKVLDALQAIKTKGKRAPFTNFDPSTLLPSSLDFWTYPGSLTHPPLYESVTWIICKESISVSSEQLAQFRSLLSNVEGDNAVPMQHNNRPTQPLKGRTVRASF

Broadly, the Ki is a measure of affinity in units of concentration, obtained from inhibition or displacement. On to `COc1cccc(C2OC(c3ccc(S(=O)(=O)NC(C)=O)cc3)=NN2C(C)=O)c1` (centres undefined), for which the Ki in assay [1] was found to be 430 nM.

Consider `CC(=O)NS(=O)(=O)c1ccc(C2=NN(C(C)=O)C(c3ccc(C)cc3)O2)cc1` (centres undefined), for which the Ki in assay [1] is 502 nM.

With `CC(=O)NS(=O)(=O)c1ccc(C2=NN(C(C)=O)C(c3cccc([N+](=O)[O-])c3)O2)cc1` (centres undefined), the figures for the Ki in assay [2] and in assay [1] were greater than 10000 nM and 44.3 nM, respectively.

Regarding `CC(=O)NS(=O)(=O)c1ccc(C2=NN(C(C)=O)C(c3ccccc3[N+](=O)[O-])O2)cc1` (centres undefined), the Ki in assay [2] was greater than 10000 nM; in assay [1] it was 159 nM.

Consider `COc1ccccc1C1OC(c2ccc(S(=O)(=O)NC(C)=O)cc2)=NN1C(C)=O` (centres undefined), for which the Ki in assay [1] turned out to be 378 nM.

`CC(=O)NS(=O)(=O)c1ccc(C2=NN(C(C)=O)C(c3ccc([N+](=O)[O-])cc3)O2)cc1` (centres undefined): in assay [1], the Ki was determined as 33.1 nM.

Turning to `CC(=O)NS(=O)(=O)c1ccc(C2=NN(C(C)=O)C(c3ccc(C(F)(F)F)cc3)O2)cc1` (centres undefined), the inhibition constant (Ki) is greater than 10000 nM in assay [2] and 468 nM in assay [1].

`CC(=O)NS(=O)(=O)c1ccc(C2=NN(C(C)=O)C(c3ccc(Cl)cc3Cl)O2)cc1` (single isomer, unassigned; (-)): in assay [1], the Ki was 24.2 nM.

As to `CC(=O)NS(=O)(=O)c1ccc(C2=NN(C(C)=O)C(c3ccc(F)cc3F)O2)cc1` (centres undefined), the Ki in assay [1] is 373 nM.

For the molecule `CC(=O)NS(=O)(=O)c1ccc(C2=NN(C(C)=O)C(c3ccc(F)cc3)O2)cc1` (centres undefined), the Ki in assay [1] was determined as 43.6 nM.

For `COc1ccc(C2OC(c3ccc(S(=O)(=O)NC(C)=O)cc3)=NN2C(C)=O)cc1` (centres undefined), the Ki is greater than 10000 nM in assay [2] and 143 nM in assay [1].

Take `CC(=O)NS(=O)(=O)c1ccc(C2=NN(C(C)=O)C(c3ccc(Cl)cc3Cl)O2)cc1` (single isomer, unassigned; (+)): the Ki in assay [1] is 26.9 nM.

For `CC(=O)NS(=O)(=O)c1ccc(C2=NN(C(C)=O)C(c3ccccc3C)O2)cc1` (centres undefined), in assay [1], the Ki is 489 nM.

Turning to `CC(=O)NS(=O)(=O)c1ccc(C2=NN(C(C)=O)C(c3ccc(Cl)cc3)O2)cc1` (centres undefined), the Ki in assay [1] was 502 nM.

For `CC(=O)NS(=O)(=O)c1ccc(C2=NN(C(C)=O)C(c3ccc(Cl)cc3Cl)O2)cc1` (racemic), the Ki in assay [1] was found to be 25 nM.
